Reference: ChEMBL document CHEMBL4325917, “Heterocyclic Amides as Kinase Inhibitors” (ACS Med Chem Lett, 2018)

Molecular target: T1, Receptor-interacting serine/threonine-protein kinase 1 (Homo sapiens, UniProt Q13546)
T1 sequence (Q13546 whole entry): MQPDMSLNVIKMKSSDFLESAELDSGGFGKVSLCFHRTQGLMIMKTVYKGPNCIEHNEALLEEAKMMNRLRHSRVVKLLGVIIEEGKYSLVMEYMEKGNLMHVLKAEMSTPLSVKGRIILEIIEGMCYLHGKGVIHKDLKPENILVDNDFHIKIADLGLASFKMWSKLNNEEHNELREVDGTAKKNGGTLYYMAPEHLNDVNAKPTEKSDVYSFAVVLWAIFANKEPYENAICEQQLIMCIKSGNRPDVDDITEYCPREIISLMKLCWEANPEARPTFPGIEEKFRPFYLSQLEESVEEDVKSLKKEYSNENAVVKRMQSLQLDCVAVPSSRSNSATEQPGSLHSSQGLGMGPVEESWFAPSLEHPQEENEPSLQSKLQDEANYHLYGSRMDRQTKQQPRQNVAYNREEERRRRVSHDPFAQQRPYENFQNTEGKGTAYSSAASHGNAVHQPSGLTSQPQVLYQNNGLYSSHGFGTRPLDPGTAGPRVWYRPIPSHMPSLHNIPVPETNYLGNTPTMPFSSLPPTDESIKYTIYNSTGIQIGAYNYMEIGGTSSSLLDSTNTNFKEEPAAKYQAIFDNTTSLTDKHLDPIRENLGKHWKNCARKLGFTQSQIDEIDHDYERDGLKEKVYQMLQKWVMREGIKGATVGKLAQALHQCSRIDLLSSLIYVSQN
Test: Binding affinity to RIP1 (unknown origin) by fluorescence polarization assay

IC50: 20 nM
Structure (SMILES): O=C(N[C@H]1CNc2cc(Cl)ccc2NC1=O)c1nnc(Cc2ccccc2)[nH]1
